Measured values taken from patent US12679801B2, “Amino lipid and preparation method and application thereof” (Shenzhen MagicRNA Biotechnology Co., Ltd., priority 2022, dated 2026).

tested on: BMDC primary cells; test: Luc mRNA LNP transfection on BMDC primary cells (Embodiment 13, Table 3); format: cell-based, C57BL/6 mice; conditions: 16 h, ONE-Glo Luciferase
Protocol: Preparation method: the same as that described in Embodiment 7.
Animal preparation: 6-week-old female C57BL/6 mice with the body weight about 20 g were selected. The feeding environment was an SPF stage feeding room. Animal tests were strictly performed according to the guide of the national health institute and the animal ethics requirements.
(§1) Cell acquisition: C57BL/6 mice were killed through cervical dislocation, and were soaked for 5 min in 75% ethyl alcohol. Dissection was performed to obtain thigh and calf tibiae of the mice. Attached muscles were removed to expose sclerotin. Then, bone marrow in tibiae was blown out by using a 1 mL injector sucked with PBS. After the bone marrow was blown away, impurities were filtered away by a 50 μm filter screen. A red blood cell lysis buffer (3-4 mL) was added into an obtained filtrate. Then, after placement for 5 min, 800 g centrifugation was performed for 5 min to remove the supernatant. The obtained cells were placed into a 1640 culture medium (containing 10% fetal calf serum, 20 ng/mL GMCSF and 10 ng/ml IL4) to be resuspended, and were inoculated into a 6-well plate at an inoculation density of 100000 cells/ml culture medium. The materials were placed into a 37° C. cell incubator containing 5% CO2. Half liquid change was performed once every 2 days. Suspended cells and loose wall attached cells were collected on the seventh day, and were per well, and the volume of a culture medium was 100 μL.
(§2) Cell transfection: lipid nanoparticles coated with luciferase mRNA were added into a 96-well all-white ELISA plate laid with primary cells. The adding volume of the mRNA lipid nanoparticles in each well was controlled to be 10 μL. Then, the materials were put into a 37° C. incubator containing 5% CO2 for 16 h.
Transfection efficiency detection: 20 μL of a substrate ONE-Glo™ Luciferase was added into each well of a 96-well all-white ELISA plate. After 1 min, detection was performed by a multifunctional or multimode microplate reader.

Structure (SMILES) | Luciferase luminescence intensity
CCCCCCCCCCCCCCC(COC(=O)C(C)(C)CCCCCCCC)OC(=O)CCCCN(C)C (centres unmarked) [E11C58A11] | 2.3E+ 04
CCCCCCCCCCCCCCCCCC(=O)OCC(OC(=O)CCCCN(C)C)C(CCCC)CCCCC (centres unmarked) [E21C13A11] | 6.4E+ 04
CCCCCCCCCCCCCCC(C)C(=O)OCC(CCCCCCCCCCCCC)OC(=O)C1CCN(C)CC1 (centres unmarked) [E10C74A23] | 1.0E+ 04
CCCCCCCCC(CCCCCC)C(=O)OCC(OC(=O)C1CCN(C)CC1)C(CCCC)CCCCC (centres unmarked) [E21C71A23] | 1.9E+ 04
C=CCCCCC(COC(=O)C(CCCCCCC)CCCCCCCCC)OC(=O)CCCCCN(C)C (centres unmarked) [E15C79A12] | 4.4E+ 04
CCCCCCCCCCC(COC(=O)C(CCCCCCC)CCCCCCCCC)OC(=O)CCCN(C)C (centres unmarked) [E7C79A9] | 5.6E+ 04
CCCCCCCCCCCCCC(C)C(=O)OCC(CCCCCCC)OC(=O)CCCCN(C)C (centres unmarked) [E4C72A11] | 5.8E+ 04
CCCCCC(CCCC)C(COC(=O)CCCCCCCCCCCC(C)C)OC(=O)CCCN(C)C (centres unmarked) [E21C67A9] | 3.2E+ 04
CCCCCCCCCCCCCCC(COC(=O)C(CCC)CCCCCCCC)OC(=O)CCCCN(C)C (centres unmarked) [E11C62A11] | 4.1E+ 04
CCCCCCCCCCCCCC(COC(=O)C(CCCCCCC)CCCCCCCCC)OC(=O)CCCN(C)C (centres unmarked) [E10C79A9] | 1.3E+ 04
CCCCCCCCCCCCCCC(C)C(=O)OCC(CCCCCCCCCCC)OC(=O)CCCCN(C)C (centres unmarked) [E8C74A11] | 4.0E+ 04
CCCCCCCCCCCCC(COC(=O)C(CC)CCCCCCCCC)OC(=O)C1CCN(C)CC1 (centres unmarked) [E9C60A23] | 1.8E+ 04
CCCCCCCCCC(CCCCCCC)C(=O)OCC(CCCCCC)OC(=O)CCCCN(C)C (centres unmarked) [E3C79A11] | 9.0E+ 04
CCCCCCC(CCCCCC)C(=O)OCC(CCCCCC(CC)CC)OC(=O)CCCN(C)C (centres unmarked) [E20C64A9] | 3.0E+ 04
CCCCCCCCCCCCCC(=O)OCC(CCCCCC(CC)CC)OC(=O)CCCCN(C)C (centres unmarked) [E20C9A11] | 4.0E+ 04
CCCCCCCCCCCCCCCC(=O)OCC(CCCCCC(CC)CC)OC(=O)CCCN(C)C (centres unmarked) [E20C11A9, 2-((4-(Dimethylamino)Butyryl)Oxy)-8-Ethyldecyl Palmitate] | 9.9E+ 04
CCCCCCCCCCCCC(COC(=O)C(CCCC)CCCCCC)OC(=O)C(C)CCN(C)C (centres unmarked) [E9C56A10] | 8.8E+ 04
CCCCCCCCC(CCCCCC)C(=O)OCC(CCCCCC(CC)CC)OC(=O)CCCN(C)C (centres unmarked) [E20C71A9] | 6.6E+ 04
CCCCCCCCCCC(COC(=O)C(CCCCCC)CCCCCCCC)OC(=O)CCCCN(C)C (centres unmarked) [E7C71A11] | 4.4E+ 04
CCCCCCCCCCCCCCCC(=O)OCC(CCCCCC(CC)CC)OC(=O)C1CCN(C)CC1 (centres unmarked) [E20C11A23] | 1.6E+ 04
CCCCCCCCCCC(COC(=O)C(CCCCCC)CCCCCCCC)OC(=O)C(C)CCN(C)C (centres unmarked) [E7C71A10] | 8.3E+ 04
CCCCCCCCCCCCCCC(C)C(=O)OCC(CCCCCCCCCCCCC)OC(=O)CCCN(C)C (centres unmarked) [E10C74A9] | 1.3E+ 04

Structure (SMILES) | Luciferase luminescence intensity
CCCCCCCCCCCCCCC(C)C(=O)OCC(CCCCCCCCCCC)OC(=O)C1CCN(C)CC1 (centres unmarked) [E8C74A23] | 1.3E+ 04
CCCCCCCCCC(COC(=O)C(CCCCCCC)CCCCCCCCC)OC(=O)CCCCN(C)C (centres unmarked) [E6C79A11] | 5.4E+ 04
CCCCCCCCCCCCCCCCCC(=O)OCC(OC(=O)CCCN(C)C)C(CCCC)CCCCC (centres unmarked) [E21C13A9] | 6.7E+ 04
CCCCCCCCCCCCCCC(C)C(=O)OCC(CCCCCCCC)OC(=O)CCCCN(C)C (centres unmarked) [E5C74A11] | 7.7E+ 03
CCCCCCCCCCCCCCC(C)C(=O)OCC(CCCCCCC)OC(=O)CCCN(C)C (centres unmarked) [E4C74A9] | 6.9E+ 04
CCCCCCCCCCCCCCCC(COC(=O)C(CCCCCC)CCCCCC)OC(=O)C1CCN(C)CC1 (centres unmarked) [E12C64A23] | 1.8E+ 04
CCCCCCCCCCCCCCC(C)C(=O)OCC(CCCCCCCCCC)OC(=O)CCCCN(C)C (centres unmarked) [E7C74A11] | 3.2E+ 04
C=CCCCCC(COC(=O)C(CCCCCCC)CCCCCCCCC)OC(=O)CCCCN(C)C (centres unmarked) [E15C79A11] | 3.0E+ 04
CCCCCCCCCCC(COC(=O)C(CCCCCCC)CCCCCCCCC)OC(=O)C(C)CCN(C)C (centres unmarked) [E7C79A10] | 3.6E+ 04
CCCCCCCCCCCCC(COC(=O)C(CCC)CCCCCCCC)OC(=O)C(C)CCN(C)C (centres unmarked) [E9C62A10] | 4.3E+ 04
CCCCCCCCCCCCCC(C)C(=O)OCC(CCCCCCCCCCC)OC(=O)CCCN(C)C (centres unmarked) [E8C72A9] | 6.1E+ 04
CCCCCCCCCCCCCC(=O)OC(CC(F)(F)C(F)(F)C(F)(F)C(F)(F)C(F)(F)C(F)(F)F)OC(=O)CCCN(C)C (centres unmarked) [E24C9A9, 1-((4-(Dimethylamino)Butyryl)Oxy)-3,3,4,4,5,5,6,6,7,7,8,8,8-Tridecafluorooctyl Tetradecanoate] | 1.1E+ 04
CCCCCCCCCCCCCC(C)C(=O)OCC(CCCCCCCCCCC)OC(=O)CCCCN(C)C (centres unmarked) [E8C72A11] | 7.3E+ 04
CCCCCCCCCCCCC(COC(=O)C(CCCCCC)CCCCCC)OC(=O)CCCN(C)C (centres unmarked) [E9C64A9] | 8.9E+ 04
CCCCCCCCCCC(C)(C)C(=O)OCC(CCCCCC(CC)CC)OC(=O)CCCN(C)C (centres unmarked) [E20C66A9] | 5.9E+ 04
CCCCCCCCCCCCCC(=O)OCC(CCCCCC(CC)CC)OC(=O)C(C)CCN(C)C (centres unmarked) [E20C9A10] | 2.7E+ 04
CCCCCCCCCCCC(COC(=O)C(CCCCCCC)CCCCCCCCC)OC(=O)CCCN(C)C (centres unmarked) [E8C79A9] | 3.6E+ 04
CCCCCCCCCCCCCCC(C)C(=O)OCC(CCCCCCCCCCC)OC(=O)CCCN(C)C (centres unmarked) [E8C74A9] | 8.5E+ 04
CCCCCCCCCCCCCCCCCC(=O)OCC(CCCCCCCC)OC(=O)CCCCCN(C)C (centres unmarked) [E5C13A12] | 1.1E+ 04
CCCCCCCCCC(CCCCCCC)C(=O)OCC(CCCCCCCC)OC(=O)CCCCN(C)C (centres unmarked) [E5C79A11] | 3.6E+ 04
CCCCCCCCCCCCC(COC(=O)C(CCCCC)CCCCC)OC(=O)C(C)CCN(C)C (centres unmarked) [E9C57A10] | 3.2E+ 04
CCCCCCCCCCCCCC(C)C(=O)OCC(CCCCCCCCC)OC(=O)CCCCN(C)C (centres unmarked) [E6C72A11] | 5.0E+ 04

tested on: BMDC primary cells; test: Luc mRNA LNP transfection on BMDC primary cells (Embodiment 21, Table 9); format: cell-based, C57BL/6 mice; conditions: 16 h, ONE-Glo Luciferase
Protocol: Preparation method: the same as that in Embodiment 17.
Animal preparation: 6-week-old female C57BL/6 mice with the body weight about 20 g were selected. A feeding environment was an SPF stage feeding room. Animal tests were strictly performed according to the guide of the national health institute and the animal ethics requirements.
as §1, with “to remove a supernatant. The” for “to remove the supernatant. The”, “and 10 ng/mL IL4) to” for “and 10 ng/ml IL4) to”, “and were inoculated to a 96-well all-white ELISA plate at the inoculation density of 20000 cells per well,” for “and were per well,”
as §2, with “white” for “all-white”
Transfection efficiency detection: 20 μL of a substrate ONE-Glo™ Luciferase was added into each well of a 96-well all-white ELISA plate, and after 1 min, detection was performed by a multifunctional or multimode microplate reader.

Structure (SMILES) | Luciferase luminescence intensity
CCCCCCCCCCC(COC(=O)C(CCCCCCCC)CCCCCCCC)OC(=O)CCCN(C)C (centres unmarked) [E7C115A9] | 5.6E+04
CCCCCCCCCCC(COC(=O)C(CCCCCCCCC)CCCCCCCCC)OC(=O)CCCCN(C)C (centres unmarked) [E7C116A11] | 9.2E+04
CCCCCCCCCCC(COC(=O)C(CCCCCCC)CCCCCCC)OC(=O)CCCN(C)C (centres unmarked) [E7C114A9, 2-((4-(Dimethylamino)Butanoyl)Oxy) Dodecyl 2-Heptylnonanoate] | 6.6E+04
CCCCCCCCCCC(COC(=O)C(CCCC)CCCCCCCCCC)OC(=O)CCCN(C)C (centres unmarked) [E7C104A9] | 3.9E+04
CCCCCCCCCCCCC(COC(=O)C(CCCCCCCCC)CCCCCCCCC)OC(=O)CCCCN(C)C (centres unmarked) [E9C116A11] | 7.6E+04
CCCCCCCCCCCCC(COC(=O)C(CCCCCCCC)CCCCCCCC)OC(=O)CCCN(C)C (centres unmarked) [E9C115A9] | 1.4E+05
CCCCCCCCCCCCCCC(COC(=O)CC(CCCCCCC)CCCCCCC)OC(=O)CCCN(C)C (centres unmarked) [E11C128A9] | 3.9E+04
CCCCCCCCC(COC(=O)C(CCCCCCC)CCCCCCC)OC(=O)CCCN(C)C (centres unmarked) [E5C114A9] | 8.6E+03
CCCCCCCCCCCCCCC(COC(=O)CC(CCCCCCC)CCCCCCC)OC(=O)CCCCN(C)C (centres unmarked) [E11C128A11] | 4.2E+04
